Experimental data as given in patent US6319929A, “Suksdorfin analogs, compositions thereof, and methods for making and using thereof” (priority 1998, dated 2001).
Where two headings read alike, the source gives them in different places.

Tests used:
[1] = tested on: HIV-1 replication in H9 cells; experiment: HIV-1 replication inhibition in acutely infected H9 lymphocytes (p24 antigen ELISA); type: cell-based, HIV-1 (IIIB strain); conditions: for anti-HIV activity in H9 cells (in words): acutely infected H9 cells
Description: HIV inhibition assay. The HIV inhibition was measured as described herein. Briefly, H9 cells, a T cell line, (3.5×10^6 cells/ml) were incubated in the presence or absence of HIV-1 (IIIB strain, 0.01-0.1 TCID50 /cell) for 1 hour at 37° C. Cells were washed thoroughly and resuspended at a final concentration of 2×10^5 cells/ml in the presence or absence of compound. After incubation for 3-4 days at 37° C., the cell density of uninfected cultures was determined by cell count to assess toxicity of the drug. An aliquot of each cell-free supernatant was assayed by p24 antigen ELISA to quantitate the amount of HIV-1 present in the infected cultures. Test compounds were considered to be active at a particular concentration if p24 antigen levels were less than 70% of infected, untreated controls and were nontoxic to uninfected H9 cells.
HIV Growth Inhibition Assay: The T cell line, H9, and the promonocytic cell line, U937, were maintained separately in continuous culture with complete medium (RPMI 1640 and […] fetal calf serum (FCS) at 5% CO2 and 37° C. Cell lines were used in experiments only when in log phase of growth; whereas, uninfected peripheral blood mononuclear cells (PBMCs) were first stimulated with PHA (1 μg/ml) for 3 days. All cell targets were incubated with HIV-1 (IIIB isolate, TCID50 10 ^4 IU/mi, at a multiplicity of infection of 0.1-0.01 IU/cell) for 1 hour at 37° C. and 5% CO2. The cell lines and PBMCs were washed thoroughly to remove unabsorbed virions and resuspended at 4×10^5 cells/ml in complete medium or complete medium with 10% v/v interleukin […] IL-2, respectively. Aliquots ( ml) were placed in wells of 24-well culture plates containing an equal volume of test compound (diluted in the appropriate culture medium). After incubation for 4 days at 37° C., cell density of uninfected cultures was determined by counting cells in a Coulter counter to assess toxicity of the test compound. A p24 antigen ELISA assay was used to determine the level of virus released in the medium of the HIV-infected cultures. The p24 antigen assay uses a HIV-1 anti-p24 specific monoclonal antibody as the capture antibody coated-on 96-well plates. Following a sample incubation period, rabbit serum containing antibodies for HIV-1 p24 is used to tag any p24 "captured" onto the microtiter well surface. Peroxidase conjugated goat anti-rabbit serum is then used to tag HIV-1 p24 specific rabbit antibodies which have complexed with captured p24. […] The cut-off for the p24 ELISA assay is 12. pg/ml. P24 in the culture medium was quantitated against a standard curve containing known amounts of p24. The effective (EC50) and inhibitory (IC50) concentrations (for anti-HIV activity and cytotoxicity, respectively) were determined graphically. Both the EC50 and IC50 values were calculated by plotting drug concentration versus percent inhibition, and then identifying a 50% inhibition value from the graph.

[2] = tested on: chronically HIV-1 infected ACH-2 cells; experiment: Virus expression from chronically HIV-1 infected T cell line ACH-2 (p24 antigen ELISA); type: cell-based; conditions: for effect on virus expression of PMA-stimulated ACH-2 cells (in words): with PMA; for induction of virus expression from ACH-2 cells (in words): without PMA
Description: (§1) Effects of suksdorfin analogs on Chronically HIV-1 infected cells. The experimental design is as follows: The phorbol ester, PMA (10^-8 M) and various concentrations of suksdorfin were either added or not added to both the chronically HIV-1 infected T cell line (ACH-2) and to the chronically HIV-1 infected monocytic cell line (U1). Cell-free supernatant was collected 72 hours post culture for p24 antigen ELISA.
Results (Table 11) from adding compound 16 to the chronically HIV-infected T cell line, ACH-2, according to methods in above examples. ACH-2 are a chronically HIV-1 infected T cell line. It was derived from A3.01 cells which is a subclone of the CEM cell line. The data below indicates the following points:
(§2) Chronically HIV-1 infected cell lines. HIV-1 chronically infected T cell line, ACH-2^12, and HIV-1 chronically infected promonocytic cell line, U1 13, were continuously maintained in RPMI 1640 with 10% fetal calf serum (FCS). For experiments, the cell lines were only used in the […] of growth. Cells (0.5×10^6 cells/well) and either various concentrations of suksdorfin or medium alone were added to 24-well plates in the presence or absence of PMA (10^-8 M). After 72 hours at 37° C. and 5% CO2, an aliquot of the cell-free supernatants were collected and analyzed for p24 antigen by ELISA (see below for details of p24 antigen ELISA).

[3] = tested on: chronically HIV-1 infected U1 cells; experiment: Virus expression from chronically HIV-1 infected monocytic cell line U1 (p24 antigen ELISA); type: cell-based; conditions: for effect on virus expression of PMA-stimulated U1 cells (in words): with PMA; for induction of virus expression from U1 cells (in words): without PMA
Description: as §1
Compound 16 was also assayed on ACH-2 (chronically HIV-1 infected T cell line). U1 cells are also chronically HIV-1 infected cells but they are from the monocytic cell line, U937. The data presented in Table 8 indicates the following points:
as §2

For `Cc1cn([C@H]2C[C@H](N=[N+]=[N-])[C@@H](CO)O2)c(=O)[nH]c1=O` [AZT, azidothymidine, reference compound], the EC50 ([1]; Human immunodeficiency virus 1, H9, Table 3, H9 lymphocytes) was 40 nM, the EC50 ([1]; Human immunodeficiency virus 1, H9, Table 17, acutely infected H9 lymphocytes) was 150 nM and the “Therapeutic Index” value ([1]; Table 3, H9 lymphocytes) was 50,000. For the same compound, the “Therapeutic Index” value ([1]; Table 17, H9) was 12,500, the P24 ([2]; Table 11 (ACH-2), +PMA, 0.01 μg/ml) was 21,373 pg/ml and the P24 ([2]; Table 11 (ACH-2), +PMA, 0.1 μg/ml) was 10,621 pg/ml. The P24 ([2]; Table 11 (ACH-2), +PMA, 1 μg/ml) was 17,088 pg/ml, the P24 ([2]; Table 11 (ACH-2), +PMA, 10 μg/ml) was 16,584 pg/ml and the P24 ([2]; Table 11 (ACH-2), -PMA, 0.01 μg/ml) was 796 pg/mL. The P24 ([2]; Table 11 (ACH-2), -PMA, 0.1 μg/ml) was 942 pg/mL, the P24 ([2]; Table 11 (ACH-2), -PMA, 1 μg/ml) was 904 pg/mL and the P24 ([2]; Table 11 (ACH-2), -PMA, 10 μg/ml) was 939 pg/mL. For the same compound, the P24 ([3]; U1, +PMA, 0.01 μg/ml) was 9626 pg/mL, the P24 ([3]; U1, +PMA, 0.1 μg/ml) was 4363 pg/mL and the P24 ([3]; U1, +PMA, 1 μg/ml) was 7898 pg/mL. The P24 ([3]; U1, +PMA, 10 μg/ml) was 8653 pg/mL, the P24 ([3]; U1, -PMA, 0.01 μg/ml) was 50 pg/mL and the P24 ([3]; U1, -PMA, 0.1 μg/ml) was 53 pg/mL. It also gave a P24 ([3]; U1, -PMA, 1 μg/ml) of 72 pg/mL and a P24 ([3]; U1, -PMA, 10 μg/ml) of 97 pg/mL.

For `CC(=O)O[C@@H]1[C@H](OC(=O)CC(C)C)c2c(ccc3ccc(=O)oc23)OC1(C)C` [Suksdorfin, suksdorfin], the EC50 ([1]; Human immunodeficiency virus 1, H9, Table 17, acutely infected H9 lymphocytes, read-out: EC50) was 1300 nM, the EC50 ([1]; Human immunodeficiency virus 1, H9, acutely infected H9 cells, concentration which inhibits viral replication by 50%, Inactive = No suppression of HIV-1 replication in H9 cells, read-out: EC50) was 1300 nM and the EC50 ([1]; Human immunodeficiency virus 1, H9, earlier value, read-out: EC50 (value before increase)) was 0.5 to 0.8 µg/mL. The IC50 ([1]; Human immunodeficiency virus 1, Table 14, concentration which inhibits viral replication by 50%, Inactive = No suppression of HIV-1 replication in H9 cells, read-out: IC50 (μM)^b) was 1.3 µM, the “Therapeutic Index” value ([1]; IC50 for cell growth inhibition divided by EC50 for HIV inhibition, H9) was > 40 and the “Therapeutic Index” value ([1]; Table 14) was > 40.0. For the same compound, the “Therapeutic Index” value ([1]; Table 17, H9) was > 40, the “anti-HIV activity in H9 cells (in words)” value [1] was “suppressed virus replication” and the “anti-HIV activity in H9 cells (in words)” value ([1]; listed as 1) was “potent anti-HIV-1 activity at nontoxic concentrations”. For the same compound, the P24 ([2]; ACH-2, +PMA, 0.16 μg/ml) was 50,775 pg/ml, the P24 ([2]; ACH-2, +PMA, 0.8 μg/ml) was 55,910 pg/ml and the P24 ([2]; ACH-2, +PMA, 4 μg/ml) was 61,235 pg/ml. For the same compound, the P24 ([2]; ACH-2, +PMA, 20 μg/ml) was 49,914 pg/ml, the P24 ([2]; ACH-2, -PMA, 0.16 μg/ml) was 3,688 pg/ml and the P24 ([2]; ACH-2, -PMA, 0.8 μg/ml) was 3,821 pg/ml. For the same compound, the P24 ([2]; ACH-2, -PMA, 4 μg/ml) was 4,723 pg/ml, the P24 ([2]; ACH-2, -PMA, 20 μg/ml) was 4,541 pg/ml and the “effect on virus expression of PMA-stimulated ACH-2 cells (in words)” value [2] was “no significant alteration in the level of virus expression”. For the same compound, the “effect on virus expression of PMA-stimulated ACH-2 cells (in words)” value ([2]; listed as 1) was “no alteration in the level of virus expression”, the “induction of virus expression from ACH-2 cells (in words)” value [2] was “The answer is no” and the “induction of virus expression from ACH-2 cells (in words)” value ([2]; listed as 1) was “no increase in the induction of virus expression”. For the same compound, the P24 ([3]; U1, +PMA, 0.16 μg/ml) was 6,611 pg/ml, the P24 ([3]; U1, +PMA, 0.8 μg/ml) was 7,360 pg/ml and the P24 ([3]; U1, +PMA, 4 μg/ml) was 9,728 pg/ml. For the same compound, the P24 ([3]; U1, +PMA, 20 μg/ml) was 5,096 pg/ml, the P24 ([3]; U1, -PMA, 0.16 μg/ml) was 0 pg/mL and the P24 ([3]; U1, -PMA, 0.8 μg/ml) was 0 pg/mL. For the same compound, the P24 ([3]; U1, -PMA, 4 μg/ml) was 0 pg/mL, the P24 ([3]; U1, -PMA, 20 μg/ml) was 0 pg/mL and the “effect on virus expression of PMA-stimulated U1 cells (in words)” value [3] was “no significant alteration in the level of virus expression”. The “effect on virus expression of PMA-stimulated U1 cells (in words)” value ([3]; listed as 1) was “no alteration in the level of virus expression”, the “induction of virus expression from U1 cells (in words)” value [3] was “The answer is no” and the “induction of virus expression from U1 cells (in words)” value ([3]; listed as 1) was “no increase in the induction of virus expression”.
